One assay deals with human. Kind of assay: Accidental physical contact of a human with the compositions (Example 1). The assay is classed as in vivo. To be noted: accidental physical contact with Formulas (I), (II) and (III) together while synthesizing. From the text: A human came in physical contact with the compositions of the libido-enhancing therapeutics of Formula (I), Formula (II), and Formula (III) by accident while synthesizing the compositions.

The next assay deals with male rats. Kind of assay: In vivo libido stimulation assessment (mounts of rat couples). Also on record: species or system Rattus novergicus, Wistar. As to conditions: for mount kinetics profile along the night: FIGS. 12A-12F, time after coupling. The procedure: Female and male rats (Rattus novergicus) Wistar strain, with 200-280 g and 8-12 weeks old, were purchased from University of São Paulo Central Animal Care Unity. They were kept in controlled environment, including dark-light periods (12 hours each), temperature (22° to 25° C.), and with free access to water and food.
Female Wistar rats, weighing about 250 g, were ovariectomized. The procedure initiated inducing general anesthesia with Dopalen (Ketamin 70 mg/kg) and Anasedan (Xilazin 12 mg/kg), then abdominal wall was […] by the linea alba region, ovaries location, ligation of vessels supplying the ovaries and the procedure was completed with ovariectomy, itself, as well as the suture of the abdominal wall and skin. After surgery the animals received analgesic (tramadol 2 mg/kg), antibiotic (enrofloxacin, 10 mg/kg) and anti-inflammatory (Maxicam—2 mg/kg) for at least one week, or more if necessary.
Pseudo-estrus inducing. The females received estradiol (0.2 mg/day) subcutaneously for two weeks after ovariotomoy for pseudo-estrus state inducing. This condition was evaluated by vaginal smears each two days after estradiol treatment beginning. Sterile cotton-tipped swabs wetted in distilled water were gently and quickly introduced into the vaginal orifice, carefully rotated (one twist) against the vaginal wall. Rats were not anesthetized during smear collection. Afterwards, the collected sample of vaginal epithelial cells was placed on glass slides, dried at 37° C., and fixed in an ethanol-ether solution (1:1) for one minute.
The slides were then examined under light microscopy. Only females in pseudo-estrus conditions were used for libido stimulation assessment (PACCOLA et al, 2013).
Libido stimulation assessment. For libido stimulation assessments, first male rats, weighing about 250-280 g, had their penis anesthetized with 2% lidocaine by topical route 10 minutes before treatment. The three drugs were administered orally at 50 mg/kg each two days for six days (each rat received three doses). Nandrolone (IM) was used as the positive control group while olive oil and water were used as negative controls (orally administrated), as described below in TABLE 2. After one hour of treatment, couples were put together in a box, and a video camera with night vision was adequately positioned to encompass all the groups in the video, recording overnight the matches.
Analysis of the videos was performed according to the following parameters: time to first mating, duration of mounts, and quantity of mounts.
The libido studies focused the investigation in how drugs would stimulate male rats to increase matching. Considering that sexual activity in animals is related with reproduction and not only with pleasure, assessment of increase desire is particular subjective. To ensure that the observations were related with Central Nervous System modulation, 2% Lidocaine was topically applied at penis glans, to avoid any local stimulation.
The animals were treated each two days with 50 mg/Kg of test drugs (given orally), water and olive oil as negative control (given orally) and nandrolone (IM).

Setting [1] is: rats, 50 mg/Kg orally, nandrolone IM.

This note sets out measurements from patent publication US9855281B2, “Libido-enhancing therapeutic and use” (Scott Freeman Consultant, LLC, priority 2013, dated 2018).

SMILES strings stand for the structures. Entries after “also recorded” stand apart in the source; their conditions may differ.

For `CC(=O)O[C@H]1CCC2C3CC[C@H]4CC(=O)CC[C@H]4C3CC[C@@]21C` (stereo partly drawn) [Formula (I), (5S,10R,13S,17S)-13-methyl-3-oxohexadecahydro-1H-cyclopenta[a]phenanthren-17yl acetate], the arousal and libido result in the assay on human is “weekend-long period of arousal and increased libido”. Also, the “total number of mounts after each treatment” value in the assay on male rats (FIG. 10, 50 mg/Kg orally each two days, three doses, nandrolone IM, compared with controls and other drugs) is “significantly increased”. Further, the “number of mounts per hour, difference to nandrolone” value with male rats (FIG. 11, 50 mg/Kg orally, nandrolone IM) is listed as “more than twice”. Besides, the “mount kinetics profile along the night” value with male rats (50 mg/Kg orally, nandrolone IM, listed as CAS 5138-34-1, 50 mg/kg) is “low activity at the first three hours after coupling; also recorded: intense and sustainable activity was achieved after the third hour until the seventieth hour of observation”; in the assay on male rats (50 mg/Kg orally, nandrolone IM, listed as CAS 5238-34-1, 50 mg/kg), “took a long time to have some effect”. Moreover, in the assay on male rats (rats, 50 mg/Kg orally), the “stress or fatigue after each intercourse” value was “no kind of stress of fatigue was observed”. The libido stimulation entry in the assay with male rats (setting [1]) is “effective and sustainable late libido stimulation for greater than seven hours”.
Take `C[C@]12CC[C@H]3[C@@H](CCC4=CC(=O)CC[C@@H]43)[C@@H]1CC[C@@H]2O` [Nandrolone, reference compound]: the “mount kinetics profile along the night” value in the assay on male rats (50 mg/Kg orally, nandrolone IM) is given as “low stimulation at the first three hours with a peak of activity at the fourth hour retuning to baseline (zero activity) at the sixth hour”. The libido stimulation result in the assay on male rats (setting [1]) is “enhance libido early (hours)”.
Turning to `C[C@]12CCC3C(CC[C@H]4CC(=O)CC[C@H]34)C1CC[C@@H]2O` (stereo partly drawn) [Formula (III), (5S,10S,13S,17S)-17-hydroxy-13-methyltetradecahydro-1H-cyclopenta[a]phenanthren-3(2H)-one], in the assay with human, the arousal and libido entry was “weekend-long period of arousal and increased libido”. Besides, the “mount kinetics profile along the night” value with male rats (50 mg/Kg orally, nandrolone IM) is reported as “few mounts in subsequently hours”.
For the molecule `CC(=O)O[C@H]1CCC2C3CC[C@H]4C[C@@H](O)CC[C@H]4C3CC[C@@]21C` (stereo partly drawn) [Formula (II), (3S,5S,10R,13S,17S)-3-hydroxy-13-methylhexadecahydro-1H-cyclopenta[a]phenanthren-17yl acetate], in the assay on human, the arousal and libido entry was “weekend-long period of arousal and increased libido”. In addition, the “mount kinetics profile along the night” value in the assay with male rats (50 mg/Kg orally, nandrolone IM) is given as “total decrease of activity after 2 hours coupling”.
